Square brackets hold non-standard residues; d marks the D form. Peptide text beside a SMILES is read from it. * marks the point of attachment. FITC = O=C1OC2(c3ccc(O)cc3Oc3cc(O)ccc32)c2ccc(NC(=S)*)cc21; Ahx = NCCCCCC(=O)O
Assays:
[1] = tested on: HeLa cells; test: Cellular internalization assay in live HeLa cells (fluorescence microscopy); format: cell-based
Procedure: The internalization assays were performed in live HeLa cells.
The internalization assays were performed in live HeLa cells, recording the fluorescence images after 30 min, 90 min and 3 h.

[2] = tested on: HeLa 229 cells; test: cells; format: cell-based; conditions: 48 hours incubation
Procedure: Preliminary cytotoxicity studies have been performed using HeLa 229 cells, to verify the possible effect of the presence of octaarginine chain on the biological activity. These studies have been performed following an incubation during 48 hours and they were later evaluated by cell staining by crystal violet and later acetylation.

| Compound | extent of internalization (intracellular fluorescence) ([1]; images after 30 min, 90 min and 3 h) | intracellular localization of the fluorescence signal ([1]; incubation 90 min at 37° C., FIG. 2) | % Inhibition of the cellular growth ([2]; concentration 5.87 μM) | inhibition at 176.5 µM ([2]; Homo sapiens, HeLa 229, concentration 176.5 μM, read-out: % Inhibition of the cellular growth) |
| --- | --- | --- | --- | --- |
| N=C(N)NCCC[C@H](NC(=O)[C@H](CCCNC(=N)N)NC(=O)[C@H](CCCNC(=N)N)NC(=O)[C@H](CCCNC(=N)N)NC(=O)[C@H](CCCNC(=N)N)NC(=O)[C@H](CCCNC(=N)N)NC(=O)[C@H](CCCNC(=N)N)NC(=O)[C@H](CCCNC(=N)N)NC(=O)CCCCCNC(=O)[C@H](CCCCN)NC(=O)CCCCCNC(=S)Nc1ccc2c(c1)C(=O)OC21c2ccc(O)cc2Oc2cc(O)ccc21)C(N)=O [1B] ({FITC-Ahx}-K[Ahx]RRRRRRRR-NH2) | the fluorescence is intense | exclusively localized in the cytoplasm | 1 ± 2% |  |
| CC(=O)Nc1c[nH]c(C(=O)Nc2cc(C(=O)Nc3cc(C(=O)NCCCN(C)C)n(C)c3)n(C)c2)c1 [compound 9] |  |  |  | 4 ± 3% |

— US20110237499A1, “HYBRID TRIPYRROLE-OCTAARGININE COMPOUNDS AND THEIR USE AS MEDICAMENT IN THE TREATMENT OF CANCER AND MICROBIAL ILLNESSES” (priority 2008, published 2011)
